Measured values reported in EP0565593B1, “REDUCING PESTICIDAL INTERACTIONS IN CROPS” (priority 1990, dated 1992).

Tests used:
Corn [1] = assay: Field trials, PPI, PRE and POE herbicide applications with terbufos (Example 7); format: in vivo
Description: This example summarizes the results of one series of field trials from a plurality of locations and soil types wherein test chemicals were applied in various modes including pre-plant incorporated (PPI), post emergence (POE) and preemergence (PRE) with and without a safener (antidote). Test Chemicals were Herbicide Nos 1, 2, 3 and 7-9; Insecticide No. 1 and Antidote No. 1.
In these trials Insecticide No. 1 (terbufos) was T-banded or furrow applied at labeled rates prior to planting corn. PPI herbicide treatments were applied prior to insecticide applications; PRE treatments were applied after the insecticide application either prior to or after seeding the corn. POE herbicide applications were made at 2 corn-growth stages, i.e., early post (EP) at the 2-3 leaf stage and late post (LP) at the 4-7 leaf stage. Plots were small plot with 3 replications in a randomized complete block design. In the PRE and PPI herbicide treatments, Antidote No. 1 was applied as a tankmix in both treatments. In the POE herbicide treatments, that antidote was applied as a tank mix with the herbicide at the EP and LP stages.

Corn [2] = assay: Greenhouse test, combination of Procedures II and III: insecticide in-furrow or in cover layer, herbicide and antidote incorporated in cover layer (Examples 1-3, 6; Tables 1-3, 6); format: in vivo; details: for Percent Injury Corn: 7 weeks; for % Injury Corn / % Corn Injury PN 3320 / % Corn Injury PN 3377: 3 weeks
[3] = Ex. 6: Antidote 1 0.14 + Herbicide 1 0.14 Kg/Ha
[4] = Ex. 6: Antidote 1 0.42 + Herbicide 1 0.14 Kg/Ha
[5] = Ex. 6: Antidote 1 0.56 + Herbicide 1 0.56 Kg/Ha
[6] = Ex. 6: Antidote 1 1.68 + Herbicide 1 0.56 Kg/Ha
[7] = Ex. 6: Insecticide 1 0.23 Kg/305m + Antidote 1 0.14 + Herbicide 1 0.14 Kg/Ha
[8] = Ex. 6: Insecticide 1 0.23 Kg/305m + Antidote 1 0.42 + Herbicide 1 0.14 Kg/Ha
[9] = Ex. 6: Insecticide 1 0.23 Kg/305m + Antidote 1 0.56 + Herbicide 1 0.56 Kg/Ha
[10] = Ex. 6: Insecticide 1 0.23 Kg/305m + Antidote 1 1.68 + Herbicide 1 0.56 Kg/Ha
[11] = Ex. 6: Insecticide 2 0.23 Kg/305m + Antidote 1 0.14 + Herbicide 1 0.14 Kg/Ha
[12] = Ex. 6: Insecticide 2 0.23 Kg/305m + Antidote 1 0.42 + Herbicide 1 0.14 Kg/Ha
[13] = Ex. 6: Insecticide 2 0.23 Kg/305m + Antidote 1 0.56 + Herbicide 1 0.56 Kg/Ha

In the case of `CC1(C)OC(c2ccco2)CN1C(=O)C(Cl)Cl` (centres unmarked) [Antidote No. 1, Oxazolidine, 3-(dichloroacetyl)-2,2-dimethyl-5-(2-furanyl)-], the “safening of insecticide interactions” value (Corn [1]; antidote tankmix POE with Herbicide No. 7, Insecticide No. 1) is reported as “effectively safened”, the “crop injury” value (Corn [1]; mean of nine locations, PRE and PPI, Insecticide No. 1, 1:1 Herbicide No. 1:Antidote No. 1 and 30:1 Herbicide No. 2:Antidote No. 1) is reported as “reduced from non-commercially-acceptable to commercially-acceptable levels” and the “Percent Injury Corn” value (Corn [2]; Antidote 1 0.14 + Herbicide 1 0.14 Kg/Ha) is reported as 2%. The “Percent Injury Corn” value (Corn [2]; Antidote 1 0.56 + Herbicide 1 0.56 Kg/Ha) was 5%, the “Percent Injury Corn” value (Corn [2]; Antidote 1 2.24 + Herbicide 1 2.24 Kg/Ha) was 15% and the “Percent Injury Corn” value (Corn [2]; Antidote 1 2.24 Kg/Ha alone) was 0%. For the same compound, the “% Injury Corn” value (Corn [2]; Ex. 2: Antidote 1 0.14 + Herbicide 1 0.14 Kg/Ha) was 0%, the “% Injury Corn” value (Corn [2]; Ex. 2: Antidote 1 0.42 + Herbicide 1 0.14 Kg/Ha) was 8% and the “% Injury Corn” value (Corn [2]; Ex. 2: Antidote 1 0.56 + Herbicide 1 0.56 Kg/Ha) was 3%. For the same compound, the “% Injury Corn” value (Corn [2]; Ex. 2: Antidote 1 1.68 + Herbicide 1 0.56 Kg/Ha) was 5%, the injury to corn (Corn [2]; Ex. 2: Herbicide No. 1 0.14 kg/ha + Insecticide 1 or 2, antidote applied at 3 X the herbicide rate) was “less than 10%” and the “% Injury Corn” value (Corn [2]; Ex. 2: Insecticide 1 0.11 kg/305m + Antidote 1 0.14 + Herbicide 1 0.14 Kg/Ha) was 26%. The “% Injury Corn” value (Corn [2]; Ex. 2: Insecticide 1 0.11 kg/305m + Antidote 1 0.42 + Herbicide 1 0.14 Kg/Ha) was 6%, the “% Injury Corn” value (Corn [2]; Ex. 2: Insecticide 1 0.11 kg/305m + Antidote 1 0.56 + Herbicide 1 0.56 Kg/Ha) was 30% and the “% Injury Corn” value (Corn [2]; Ex. 2: Insecticide 1 0.11 kg/305m + Antidote 1 1.68 + Herbicide 1 0.56 Kg/Ha) was 18%. For the same compound, the “% Injury Corn” value (Corn [2]; Ex. 2: Insecticide 1 0.23 Kg/305m + Antidote 1 0.14 + Herbicide 1 0.14 Kg/Ha) was 18%, the “% Injury Corn” value (Corn [2]; Ex. 2: Insecticide 1 0.23 Kg/305m + Antidote 1 0.22 + Herbicide 1 0.14 + Herbicide 2 4.48 Kg/Ha) was 20% and the “% Injury Corn” value (Corn [2]; Ex. 2: Insecticide 1 0.23 Kg/305m + Antidote 1 0.42 + Herbicide 1 0.14 Kg/Ha) was 6%. For the same compound, the “% Injury Corn” value (Corn [2]; Ex. 2: Insecticide 1 0.23 Kg/305m + Antidote 1 0.56 + Herbicide 1 0.56 Kg/Ha) was 33%, the “% Injury Corn” value (Corn [2]; Ex. 2: Insecticide 1 0.23 Kg/305m + Antidote 1 1.68 + Herbicide 1 0.56 Kg/Ha) was 34% and the “% Injury Corn” value (Corn [2]; Ex. 2: Insecticide 2 3.36 Kg/Ha + Antidote 1 0.22 + Herbicide 1 0.14 + Herbicide 2 4.48 Kg/Ha) was 29%. For the same compound, the “% Injury Corn” value (Corn [2]; Ex. 2: Insecticide 2 3.36 Kg/Ha + Antidote 1 0.22 + Herbicide 2 4.48 Kg/Ha) was 19%, the “% Injury Corn” value (Corn [2]; Ex. 3: Antidote 1 0.14 + Herbicide 1 0.14 Kg/Ha) was 3% and the “% Injury Corn” value (Corn [2]; Ex. 3: Antidote 1 0.22 + Herbicide 2 4.48 Kg/Ha) was 13%. The “% Injury Corn” value (Corn [2]; Ex. 3: Antidote 1 0.42 + Herbicide 1 0.14 Kg/Ha) was 3%, the “% Injury Corn” value (Corn [2]; Ex. 3: Antidote 1 0.56 + Herbicide 1 0.56 Kg/Ha) was 8% and the “% Injury Corn” value (Corn [2]; Ex. 3: Antidote 1 1.68 + Herbicide 1 0.56 Kg/Ha) was 3%. For the same compound, the corn injury (Corn [2]; Ex. 3: Herbicide No. 1 + Insecticide 3 or 4, Antidote No. 1 at 1:1 ratio, all cases) was “less than 5%”, the “% Injury Corn” value (Corn [2]; Ex. 3: Insecticide 3 (227g) + Antidote 1 0.14 + Herbicide 1 0.14 Kg/Ha) was 0% and the “% Injury Corn” value (Corn [2]; Ex. 3: Insecticide 3 (227 g) + Antidote 1 0.22 + Herbicide 1 0.14 + Herbicide 2 4.48 Kg/Ha) was 18%. For the same compound, the “% Injury Corn” value (Corn [2]; Ex. 3: Insecticide 3 (227 g) + Antidote 1 0.22 + Herbicide 2 4.48 Kg/Ha) was 25%, the “% Injury Corn” value (Corn [2]; Ex. 3: Insecticide 3 (227g) + Antidote 1 0.42 + Herbicide 1 0.14 Kg/Ha) was 20% and the “% Injury Corn” value (Corn [2]; Ex. 3: Insecticide 3 (227g) + Antidote 1 1.68 + Herbicide 1 0.56 Kg/Ha) was 8%. For the same compound, the “% Injury Corn” value (Corn [2]; Ex. 3: Insecticide 4 (227g) + Antidote 1 0.14 + Herbicide 1 0.14 Kg/Ha) was 3%, the “% Injury Corn” value (Corn [2]; Ex. 3: Insecticide 4 (227g) + Antidote 1 0.22 + Herbicide 1 0.14 + Herbicide 2 4.48 Kg/Ha) was 48% and the “% Injury Corn” value (Corn [2]; Ex. 3: Insecticide 4 (227g) + Antidote 1 0.22 + Herbicide 2 4.48 Kg/Ha) was 45%. The “% Injury Corn” value (Corn [2]; Ex. 3: Insecticide 4 (227g) + Antidote 1 0.42 + Herbicide 1 0.14 Kg/Ha) was 5%, the “% Injury Corn” value (Corn [2]; Ex. 3: Insecticide 4 (227g) + Antidote 1 0.56 + Herbicide 1 0.56 Kg/Ha) was 28% and the “% Injury Corn” value (Corn [2]; Ex. 3: Insecticide 4 (227g) + Antidote 1 1.68 + Herbicide 1 0.56 Kg/Ha) was 5%. The “% Corn Injury PN 3320” value (Corn [2]; [3]) was 15%, the “% Corn Injury PN 3377” value (Corn [2]; [3]) was 15% and the “% Corn Injury PN 3320” value (Corn [2]; [4]) was 10%. For the same compound, the “% Corn Injury PN 3377” value (Corn [2]; [4]) was 0%, the “% Corn Injury PN 3320” value (Corn [2]; [5]) was 68% and the “% Corn Injury PN 3377” value (Corn [2]; [5]) was 0%. The “% Corn Injury PN 3320” value (Corn [2]; [6]) was 43%, the “% Corn Injury PN 3377” value (Corn [2]; [6]) was 0% and the “% Corn Injury PN 3320” value (Corn [2]; [7]) was 40%. For the same compound, the “% Corn Injury PN 3377” value (Corn [2]; [7]) was 18%, the “% Corn Injury PN 3320” value (Corn [2]; [8]) was 25% and the “% Corn Injury PN 3377” value (Corn [2]; [8]) was 3%. The “% Corn Injury PN 3320” value (Corn [2]; [9]) was 40%, the “% Corn Injury PN 3377” value (Corn [2]; [9]) was 35% and the “% Corn Injury PN 3320” value (Corn [2]; [10]) was 35%. The “% Corn Injury PN 3377” value (Corn [2]; [10]) was 35%, the “% Corn Injury PN 3320” value (Corn [2]; [11]) was 15% and the “% Corn Injury PN 3377” value (Corn [2]; [11]) was 0%. For the same compound, the “% Corn Injury PN 3320” value (Corn [2]; [12]) was 10%, the “% Corn Injury PN 3377” value (Corn [2]; [12]) was 13% and the “% Corn Injury PN 3320” value (Corn [2]; [13]) was 68%. The “% Corn Injury PN 3377” value (Corn [2]; [13]) was 10% and the “% Corn Injury PN 3320” value (Corn [2]; Ex. 6: Insecticide 2 0.23 Kg/305m + Antidote 1 1.68 + Herbicide 1 0.56 Kg/Ha) was 43%.
